In publication PMC4398456, “Evidence for a Novel Mechanism of Antimicrobial Action of a Cyclic R-,W-Rich Hexapeptide” (PLoS ONE, 2015):
Residues, ends and D or L forms follow the SMILES beside them.

Assay: Calcein dye release from liposomes
Assay type: biochemical
Conditions: 10 μM peptide, 1 min, Tris buffer pH 7.4, room temperature; for permeabilisation (calcein dye release): fluorescence; for dye release: cardiolipin 40 mol%
Text: Large unilamellar vesicles (LUVs) were used for isothermal titration calorimetry studies and prepared as described before. […] As CL potentially carries two negative charges it was applied at half POPG concentrations to give liposomes with identical surface charge. Subsequently, chloroform was evaporated under nitrogen stream and obtained lipid films were dried under high vacuum for several hours and rehydrated in phosphate buffer by thorough vortexing. The solution was heated 2–3 times in a water bath to 40°C to facilitate resuspension. POPE-LUVs were obtained after 35-fold extrusion through two stacked polycarbonate membranes (100 nm pore size) using a mini extruder (Avestin, Switzerland). The procedure gives vesicles with a diameter of 90–120 nm as determined with dynamic light scattering (DLS) performed on a Zetasizer Nano ZS ZEN 3600 (Malvern Instruments, UK). Large liposomes for dye release experiments were prepared with a solution of 80 mM calcein in 10 mM Tris buffer, 0.1 mM EDTA, pH 7.4 and treated to remove non-incorporated dye as described before.
Peptide-induced calcein release was monitored fluorimetrically by measuring the time-dependent decrease in self-quenching (ex 490 nm, em 514 nm) at room temperature on a LS 50B spectrofluorimeter (Perkin Elmer, Germany) as described before. Lipid concentration was 25 μM in Tris buffer (10 mM Tris, 154 mM NaCl, pH 7.4) and peptide concentrations ranged from 1 to 200 μM. The fluorescence intensity corresponding to 100% release was determined by addition of a 10% Triton X-100 solution. In this study, calcein release was analysed after 1 min of incubation with 10 μM peptide and 25 μM liposomal suspensions.

## N=C(N)NCCC[C@@H]1NC(=O)[C@H](CCCNC(=N)N)NC(=O)[C@H](Cc2c[nH]c3ccccc23)NC(=O)[C@H](Cc2ccccc2)NC(=O)[C@H](Cc2c[nH]c3ccccc23)NC(=O)[C@H](CCCNC(=N)N)NC1=O [cWFW] (cyclo(FWRRRW))
CL content of 12.5% (matrix lipid not restated, follows sentence on POPE systems), 25 μM lipid
  peptide-induced dye release: 18%
PC/7.5% CL, 25 μM lipid
  permeabilisation (calcein dye release): 15%
PC/25% PG, 25 μM lipid
  permeabilisation (calcein dye release): 8%
PE/7.5% CL, 25 μM lipid
  permeabilisation (calcein dye release): 8%
PE/25%PG, 25 μM lipid (peptide/lipid 1/2.5)
  permeabilisation (calcein dye release): 2%
POPC-based LUVs, 25 μM lipid
  dye release: more than 70%
POPE-based LUVs, 25 μM lipid
  dye release: more than 70%
